# Laboratory results as given in a melting point compilation (Tetko et al.; mined from patent text by program, amines drawn as free bases though some values may be those of a salt).
row,melting point,SMILES
1,105 to 106 °C,COC1OC(CO)C(O)C(OC(C)=O)C1Cl (stereo not drawn)
2,190 °C,Cc1nc2c(c(=O)[nH]1)-c1cc(S(=O)(=O)Nc3ccc(C(N)=O)cc3)ccc1CC2
3,83 to 84 °C,CC1(OCc2ccccc2F)COC(c2cccc(F)c2)OC1 (stereo not drawn)
4,168 to 170 °C,CCCCCCCCCCCCOc1ccc(C#N)cc1-c1cc(C#N)ccc1OCCCCCCCCCCCC
5,103 to 104 °C,O=C(O)c1cccc2oc(-c3ccccc3OCc3ccccc3)nc12
6,176 to 177 °C,O=C(O)c1ccc([N+](=O)[O-])c(S(=O)(=O)CCO)c1
7,74 to 75 °C,COc1c(C)cc(C)cc1CCC(=O)O
8,220 to 221 °C,CCCC(O)c1ccc(Cl)c2nc3n(c12)CCCN3c1ccc(Cl)cc1Cl (stereo not drawn)
9,132 to 133 °C,O=C(CCC(=O)N1CCCCC1c1ccccc1)c1ccc2c(c1)CCN(C(=O)C(F)(F)F)CC2 (stereo not drawn)
10,165 to 166 °C,Cc1nn(-c2ccccn2)c2c1C(=O)CC(C)(C)C2S(=O)(=O)c1ccccc1 (stereo not drawn)
11,212 to 213 °C,Nc1nc(Nc2ccccc2)sc1C=O
12,119 to 125 °C,CC(C)OC(=O)Cn1c(=O)n(C)c(=O)n(-c2cc(N3C(=O)c4cccc(F)c4C3=O)c(F)cc2Cl)c1=O
13,130 to 133 °C,COc1ccc(-c2nc(-c3cccn3CC(=O)OC(C)C)sc2-c2ccc(OC)cc2)cc1
14,181 to 183 °C,CN1CCSC1=NC(=O)CCC(=O)N=C1SCCN1C
15,90 °C,Cn1c(=O)cc(CCc2cccc(Cl)c2)c2cc(C(N)(c3ccc(Cl)cc3)c3cccnc3)ccc21 (stereo not drawn)
16,235 to 237 °C,CC(C)c1ccccc1NC(=O)c1ccccc1SSc1ccccc1C(=O)Nc1ccccc1C(C)C
17,186 °C,O=C(O)C1(C(=O)O)C=CC=CN1
18,103 to 110 °C,CCCCCCCCc1ccc(C(=O)Cc2cccc(C(=O)O)c2)cc1

row,melting point,SMILES
1,115 to 117 °C,CCOC(=O)CC(CC(=O)Nc1ccc(Cl)c(C=C(Cl)C(=O)OCC)c1)C(F)(F)F (stereo not drawn)
2,115 to 117 °C,CCN(Cc1ccccc1)C(=O)c1c(-c2ccncc2)c(-c2ccc(F)cc2)nn1CC
3,134 to 136 °C,CCCCOCCOc1ccc(-c2ccc3c(c2)C=C(C(=O)Nc2ccc(N(C)Cc4nncn4CCC)cc2)CCN3CC(C)C)cc1
4,226 °C,COc1cc(CN2CCN(c3ccc(C(=O)NC4CC4)cc3Cl)CC2)cc2c1OC(C)C(=O)N2 (stereo not drawn)
5,176 to 177 °C,CSc1cccc(COCCCn2ccnc2)c1NC(=O)CC1c2ccccc2Oc2ccccc21
6,220 to 222 °C,CC(=O)OC1(C(C)=O)CCC2C3C=CC4=CC(=O)CCC4(C)C3C(F)CC21C (stereo not drawn)
7,152 °C,O=C(O)c1c(Cl)cc(N2C(=O)N3CCCC3(Cc3ccc(Br)cc3)C2=O)cc1Cl (stereo not drawn)
8,288 to 290 °C,Cc1[nH]c(C(=O)N2CCC(O)CC2)c(C)c1-c1nc2ccc(C(=O)c3ccccc3)cc2[nH]1
9,194 to 195 °C,CCn1c(=O)c2c(nc(/C=C/c3ccc(OC(C)=O)c(OC)c3)n2C)n(CC)c1=O
10,194 to 195 °C,COn1c(-c2ccccc2)nc2cnc3ccccc3c21
11,263 to 265 °C,CC(=O)Nc1ccc([N+](=O)[O-])cc1-c1cc([N+](=O)[O-])ccc1NC(C)=O
12,142 to 144 °C,CN1CCSC1=NCN1C(=O)CCC1=O
13,149 °C,Cn1c(=O)oc2cc(C(=O)CCN3CCN(c4ccc(F)cc4)CC3)ccc21
14,156 to 158 °C,COc1cccc2cc(CNCCN3C(=O)CC4(CCCC4)CC3=O)oc12
15,136 to 137 °C,Nc1n[nH]c(SCCCO)n1
16,193 °C,CCOC(=O)c1cc(=O)c2c(ccc3nc(C(=O)OC)cc(Cl)c32)o1
17,123 to 124 °C,CCOC(Nc1ccccc1)(OCC)C1(Cl)C=CN=C(C(=O)c2ccc(Cl)cc2)C1 (stereo not drawn)
18,77 to 79 °C,Nc1ccccc1N(C=O)CCCCO

row,SMILES,melting point
1,CSc1[nH]c2cccc3c2c1CC1C3CC(C)CN1C (stereo not drawn),201 to 202 °C
2,CCc1c(C(=O)C(N)=O)c2c(OCC(=O)O)cccc2n1Cc1ccccc1,230 to 234 °C
